Assays:
pressor response = format: in vivo, rat; conditions: phenylephrine 0.1 to 10 μg/kg, angiotensin II 0.01 to 1 μg/kg
Method: To establish that nitric oxide overproduction can result in a diminished sensitivity to pressor agents, studies in a rat model of septic hypotension, i.e., the endotoxic-, pithed-rat, are performed.
Animals are either untreated (control) or treated with endotoxin (lipopolysaccharide-treated; 15 mg/kg, i.p.) 6 hours prior to their being pithed and instrumented for blood pressure recording. Prior to pithing, mean systematic arterial pressure in control rats is about 120 mm Hg. Pressure falls about 50% after pithing of control animals and is reduced to about 25% of normal in pithed endotoxin-treated animals.
Responsiveness is restored to more than 50% of the responsiveness seen in pithed control rats.

[1] = tested on: inducible form of nitric oxide synthase; assay: Inhibition of nitric oxide synthesis by nitric oxide synthase (inducible form) from cytokine-treated rat aortic smooth muscle cells; format: biochemical, adult male Fischer 344 rats
Method: Reaction mixtures were made up containing 50 μL of a working solution, 10 μL myoglobin solution (3 mg/ml), 10 μL inhibitor, 20 μL nitric oxide synthase and 10 μL water.
The working mixture was made up to contain 160 mM tris buffer, 200 μM L-arginine, 1 mM NADPH, 20 μM flavin adenine dinucleotide, 20 μM tetrahydrobiopterin in distilled water (pH adjusted to 7.6 by adding 10N NaOH).
The nitric oxide synthase was obtained as follows: Aortic smooth muscle cells were cultured by explanting segments of the medial layer of aortae from adult male Fischer 344 rats. Aortae were removed aseptically and freed of adventitial and endothelial cells by scraping both the lumenal and abluminal surfaces. Medial fragments (1-2 mm) were allowed to attach to dry Primaria 25 cm^2 tissue culture flasks (Falcon; Oxnard, Calif.) which were kept moist with growth medium until cells emerged. Cultures were fed twice weekly with medium 199 containing 10% fetal bovine serum, 25 mM HEPES, 2 mM L-glutamine, 40 μg/ml endothelial cell growth supplement (Biomedical Technologies; Stoughton, Mass.) and 10 μg/ml gentamycin (GIBCO; Grand Island, N.Y.). When primary cultures became confluent, they were passaged by trypsinization. Cells in passage 10-15 were seeded at 20,000/well. […]

Row | Compound | pressor effect in pithed control rats (pressor response) | pressor effect in pithed endotoxic rats (pressor response) | effectiveness relative to the commercial compound (N^ω -methyl-DL-arginine), based on the concentration necessary to inhibit 50% [1]
1 | CNC[C@H](O)c1cccc(O)c1 [phenylephrine] | strong pressor effect | negligible effect | 
2 | CC(N)(CCCNC(=N)NN)C(=O)O (racemic) [α-methyl-N^ω -amino-DL-arginine, α-Methyl-N^ω -Amino-DL-Arginine] |  |  | about twice as effective as the commercial compound
3 | angiotensin II: listed among suitable α1 -adrenergic agonists; pressor agent (DRVYIHPF; Angiotensin-2; UniProt P01019 25-32, looked up) | strong pressor effect | negligible effect | 

— patent publication US5453441A, “Substituted arginines and substituted homoarginines and use thereof” (Cornell Research Foundation, Inc., priority 1994, dated 1995)
